For 27 compounds, IC50 results are on record in patent US11590139B2, “Substituted aminopurine compounds, compositions thereof, and methods of treatment therewith” (Signal Pharmaceuticals, LLC, priority 2014, dated 2023).

Molecules are shown by their SMILES.

One test has as its system Lox-IMVI melanoma cell line. Description: Lox-IMVI anti-proliferative assay (growth inhibition, Cell Titer-Glo). In kind it is cell-based, human. To be noted: Homo sapiens; IC50 activity level in the cell-based Lox-IMVI anti-proliferative assay; read-out: Activity. The procedure, abridged:
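Lox-IMVI cells in RPMI+10% FBS exposed 72 h at 37 °C to 10-point, 3-fold dilutions (0.5 nM–10 μM; 0.2% DMSO final), in duplicate. Viability by Cell Titer-Glo luminescence, with a t0 cell-number reading; data as % of DMSO control; IC50 from a four-parameter logistic fit.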
(In general: Cellular ATP, detected with luciferase, serves as a proxy for viable cell number.)
On to `NC(=O)[C@H]1CC[C@@H](n2c(Nc3c(F)cc(Cl)cc3Cl)nc3cnc(N[C@H]4CCCOC4)nc32)CC1` [Example 204, (1R,4s)-4-(8-(2,4-dichloro-6-fluorophenylamino)-2-((S)-tetrahydro-2H-pyran-3-ylamino)-9H-purin-9-yl)cyclohexanecarboxamide], for which the IC50 was > 1 µM.

Turning to `NC(=O)[C@H]1CC[C@@H](n2c(Nc3c(Cl)cc(Cl)cc3Cl)nc3cnc(NC4CCC(F)(F)CC4)nc32)CC1` [Example 88, (1s,4s)-4-(2-(4,4-difluorocyclohexylamino)-8-(2,4,6-trichlorophenylamino)-9H-purin-9-yl)cyclohexanecarboxamide], the IC50 lay in the range of 0.5 to 1 µM.

In the case of `NC(=O)[C@H]1CC[C@@H](n2c(Nc3c(F)cc(F)cc3F)nc3cnc(N[C@H]4CCC[C@@H]4O)nc32)CC1` [Example 266, (1R,4s)-4-(2-((1S,2S)-2-hydroxycyclopentylamino)-8-(2,4,6-trifluorophenylamino)-9H-purin-9-yl)cyclohexanecarboxamide], the IC50 is > 1 µM.

In the case of `NC(=O)[C@H]1CC[C@@H](n2c(Nc3c(Cl)cc(Cl)cc3Cl)nc3cnc(N[C@@H]4CCOC[C@@H]4F)nc32)CC1` [Example 302, (1S,4s)-4-(2-((3R,4R)-3-fluorotetrahydro-2H-pyran-4-ylamino)-8-(2,4,6-trichlorophenylamino)-9H-purin-9-yl)cyclohexanecarboxamide], the IC50 lay within 0.5 to 1 µM.

Regarding `C[C@@H]1CC[C@@H](Nc2ncc3nc(Nc4c(F)ccc(Cl)c4F)n([C@H]4CC[C@@H](C(N)=O)CC4)c3n2)C[C@H]1O` [Example 358, (1S,4s)-4-(8-(3-chloro-2,6-difluorophenylamino)-2-((1R,3R,4R)-3-hydroxy-4-methylcyclohexylamino)-9H-purin-9-yl)cyclohexanecarboxamide], the IC50 was > 1 µM.

Turning to `NC(=O)[C@H]1CC[C@@H](n2c(Nc3c(F)cccc3F)nc3cnc(N[C@H]4CC[C@H](O)C4)nc32)CC1` [Example 326, (1R,4s)-4-(8-(2,6-difluorophenylamino)-2-((1S,3S)-3-hydroxycyclopentylamino)-9H-purin-9-yl)cyclohexanecarboxamide], the IC50 was > 1 µM.

In the case of `NC(=O)[C@H]1CC[C@@H](n2c(Nc3c(F)cccc3Cl)nc3cnc(N[C@@H]4CCC[C@H]4O)nc32)CC1` [Example 250, (1S,4s)-4-(8-(2-chloro-6-fluorophenylamino)-2-((1R,2R)-2-hydroxycyclopentylamino)-9H-purin-9-yl)cyclohexanecarboxamide], the IC50 is > 1 µM.

Turning to `NC(=O)[C@H]1CC[C@@H](n2c(Nc3c(Cl)cc(Cl)cc3Cl)nc3cnc(N[C@@H]4CCCOC4)nc32)CC1` [Example 111, (1S,4s)-4-(2-((R)-tetrahydro-2H-pyran-3-ylamino)-8-(2,4,6-trichlorophenylamino)-9H-purin-9-yl)cyclohexanecarboxamide], the IC50 is > 1 µM.

For the compound `NC(=O)[C@H]1CC[C@@H](n2c(Nc3c(F)cc(Cl)cc3Cl)nc3cnc(N[C@H]4C[C@@H](O)C4)nc32)CC1` [Example 324, (1s,4s)-4-(8-(2,4-dichloro-6-fluorophenylamino)-2-((1s,3s)-3-hydroxycyclobutylamino)-9H-purin-9-yl)cyclohexanecarboxamide], the IC50 was > 1 µM.

In the case of `NC(=O)[C@H]1CC[C@@H](n2c(Nc3c(F)cc(Cl)cc3Cl)nc3cnc(NC4COCC4O)nc32)CC1` (stereo partly drawn) [Example 182, (1s,4s)-4-(8-(2,4-dichloro-6-fluorophenylamino)-2-(4-hydroxytetrahydrofuran-3-ylamino)-9H-purin-9-yl)cyclohexanecarboxamide], the IC50 is > 1 µM.

With `C[C@@H](CO)Nc1ncc2nc(Nc3ccc(Cl)cc3Cl)n([C@H]3CC[C@@H](C(N)=O)CC3)c2n1` [Example 170, (1R,4s)-4-(8-(2,4-dichlorophenylamino)-2-((S)-1-hydroxypropan-2-ylamino)-9H-purin-9-yl)cyclohexanecarboxamide], the IC50 was > 1 µM.

As for `NC(=O)[C@H]1CC[C@@H](n2c(Nc3c(F)ccc(Cl)c3F)nc3cnc(N[C@@H]4CC[C@@H](O)C4)nc32)CC1` [Example 217, (1S,4s)-4-(8-(3-chloro-2,6-difluorophenylamino)-2-((1R,3R)-3-hydroxycyclopentylamino)-9H-purin-9-yl)cyclohexanecarboxamide], the IC50 was > 1 µM.

As for `NC(=O)[C@H]1CC[C@@H](n2c(Nc3ccc(Cl)c(F)c3F)nc3cnc(N[C@H]4C[C@H](O)C4)nc32)CC1` [Example 285, (1s,4s)-4-(8-(4-chloro-2,3-difluorophenylamino)-2-((1R,3r)-3-hydroxycyclobutylamino)-9H-purin-9-yl)cyclohexanecarboxamide], the IC50 was > 1 µM.

`NC(=O)[C@H]1CC[C@@H](n2c(Nc3ccc(Cl)c(F)c3F)nc3cnc(NC4CCC(F)(F)CC4)nc32)CC1` [Example 290, (1s,4s)-4-(8-(4-chloro-2,3-difluorophenylamino)-2-(4,4-difluorocyclohexylamino)-9H-purin-9-yl)cyclohexanecarboxamide]: the IC50 was 0.5 to 1 µM.

The test is the same for the next values; noted with them: Homo sapiens; Lox-IMVI anti-proliferative assay, IC50 activity level; read-out: Activity.
For `COC(=O)N1CCC[C@@H](Nc2ncc3nc(Nc4c(F)cc(F)cc4Cl)n([C@H]4CC[C@@H](C(N)=O)CC4)c3n2)C1` [Example 407, (R)-methyl 3-(9-((1s,4S)-4-carbamoylcyclohexyl)-8-(2-chloro-4,6-difluorophenylamino)-9H-purin-2-ylamino)piperidine-1-carboxylate], the IC50 is > 1 µM.

`NC(=O)[C@H]1CC[C@@H](n2c(Nc3c(F)cc(Cl)cc3Cl)nc3cnc(N[C@@H]4CCC(F)(F)C4)nc32)CC1` [Example 592, (1S,4s)-4-(8-(2,4-dichloro-6-fluorophenylamino)-2-((R)-3,3-difluorocyclopentylamino)-9H-purin-9-yl)cyclohexanecarboxamide]: the IC50 is < 0.25 µM.

Take `C[C@]1(C(N)=O)CC[C@@H](n2c(Nc3c(Cl)cc(Cl)cc3Cl)nc3cnc(NC4CC(F)(F)C4)nc32)CC1` [Example 580, (1s,4s)-4-(2-(3,3-difluorocyclobutylamino)-8-(2,4,6-trichlorophenylamino)-9H-purin-9-yl)-1-methylcyclohexanecarboxamide]: the IC50 lay in the range of 0.25 to 0.5 µM.

On to `NC(=O)[C@H]1CC[C@@H](n2c(Nc3c(F)cc(Cl)cc3F)nc3cnc(N[C@@H]4CCC(F)(F)C4)nc32)CC1` [Example 588, (1S,4s)-4-(8-(4-chloro-2,6-difluorophenylamino)-2-((R)-3,3-difluorocyclopentylamino)-9H-purin-9-yl)cyclohexanecarboxamide], for which the IC50 is < 0.25 µM.

Consider `NC(=O)[C@H]1CC[C@@H](n2c(Nc3c(Cl)cc(F)cc3Cl)nc3cnc(N[C@@H]4CCC(F)(F)C4)nc32)CC1` [Example 586, (1S,4s)-4-(8-(2,6-dichloro-4-fluorophenylamino)-2-((R)-3,3-difluorocyclopentylamino)-9H-purin-9-yl)cyclohexanecarboxamide], for which the IC50 was < 0.25 µM.

Regarding `C[C@]1(C(N)=O)CC[C@@H](n2c(Nc3c(Cl)cc(F)cc3Cl)nc3cnc(N[C@@H]4CCC[C@H](O)C4)nc32)CC1` [Example 567, (1S,4s)-4-(8-(2,6-dichloro-4-fluorophenylamino)-2-((1R,3S)-3-hydroxycyclohexylamino)-9H-purin-9-yl)-1-methylcyclohexanecarboxamide], the IC50 lay within 0.5 to 1 µM.

On to `NC(=O)[C@H]1CC[C@@H](n2c(Nc3c(Cl)cc(Cl)cc3Cl)nc3cnc(N[C@H]4CCCC[C@@H](O)C4)nc32)CC1` [Example 444, (1R,4s)-4-(2-((1S,3R)-3-hydroxycycloheptylamino)-8-(2,4,6-trichlorophenylamino)-9H-purin-9-yl)cyclohexanecarboxamide], for which the IC50 is > 1 µM.

Still in this test, the particulars now being: Homo sapiens; Lox-IMVI melanoma cell line, anti-proliferative assay; read-out: Activity (IC50 activity level).
Consider `CC1(C)COCC[C@H]1Nc1ncc2nc(Nc3c(F)cc(Cl)cc3F)n([C@H]3CC[C@@H](C(N)=O)CC3)c2n1` [Example 786, (1S,4s)-4-(8-(4-chloro-2,6-difluorophenylamino)-2-((R)-3,3-dimethyltetrahydro-2H-pyran-4-ylamino)-9H-purin-9-yl)cyclohexanecarboxamide], for which the IC50 was > 1 µM.

For `NC(=O)[C@H]1CC[C@@H](n2c(Nc3c(F)cc(F)cc3Cl)nc3cnc(N[C@@H]4CCOC[C@H]4F)nc32)CC1` [Example 630, (1S,4s)-4-(8-(2-chloro-4,6-difluorophenylamino)-2-((3S,4R)-3-fluorotetrahydro-2H-pyran-4-ylamino)-9H-purin-9-yl)cyclohexanecarboxamide], the IC50 is < 0.25 µM.

Regarding `CC(C)OC(=O)N1CCC[C@@H](Nc2ncc3nc(Nc4c(Cl)cc(F)cc4Cl)n([C@H]4CC[C@@H](C(N)=O)CC4)c3n2)C1` [Example 775, (R)-isopropyl 3-(9-((1s,4S)-4-carbamoylcyclohexyl)-8-(2,6-dichloro-4-fluorophenylamino)-9H-purin-2-ylamino)piperidine-1-carboxylate], the IC50 is > 1 µM.

For `NC(=O)[C@H]1CC[C@@H](n2c(Nc3c(Cl)cc(Cl)cc3Cl)nc3cnc(N[C@@H]4CCCN(C(=O)Nc5ccccc5)C4)nc32)CC1` [Example 779, (R)-3-(9-((1s,4S)-4-carbamoylcyclohexyl)-8-(2,4,6-trichlorophenylamino)-9H-purin-2-ylamino)-N-phenylpiperidine-1-carboxamide], the IC50 is 0.5 to 1 µM.

`C[C@]1(C(N)=O)CC[C@@H](n2c(Nc3c(Cl)cc(C#N)cc3Cl)nc3cnc(N[C@H]4CCOC[C@H]4F)nc32)CC1` [Example 761, (1R,4s)-4-(8-(2,6-dichloro-4-cyanophenylamino)-2-((3S,4S)-3-fluorotetrahydro-2H-pyran-4-ylamino)-9H-purin-9-yl)-1-methylcyclohexanecarboxamide]: the IC50 is < 0.25 µM.

`C[C@]1(C(N)=O)CC[C@@H](n2c(Nc3c(F)cc(F)cc3F)nc3cnc(N[C@H]4CCC[C@@H](O)C4)nc32)CC1` [Example 625, (1R,4s)-4-(2-((1S,3R)-3-hydroxycyclohexylamino)-8-(2,4,6-trifluorophenylamino)-9H-purin-9-yl)-1-methylcyclohexanecarboxamide]: the IC50 is > 1 µM.
